{"source": "paper PMC7470033", "about": "“In vitro inhibitory effect of lysionotin on the activity of cytochrome P450 enzymes” (Pharmaceutical Biology, 2020)", "type_in_all_cases": "in vitro ADME", "key": {"[1]": {"molecular_target": "T1, CYP3A4 (Homo sapiens, UniProt P08684)", "T1 construct": "Pooled HLMs were purchased from BD Biosciences Discovery Labware; tissue BD Biosciences Discovery Labware; host or cells: pooled human liver microsomes", "T1 sequence (P08684 whole entry, canonical isoform)": "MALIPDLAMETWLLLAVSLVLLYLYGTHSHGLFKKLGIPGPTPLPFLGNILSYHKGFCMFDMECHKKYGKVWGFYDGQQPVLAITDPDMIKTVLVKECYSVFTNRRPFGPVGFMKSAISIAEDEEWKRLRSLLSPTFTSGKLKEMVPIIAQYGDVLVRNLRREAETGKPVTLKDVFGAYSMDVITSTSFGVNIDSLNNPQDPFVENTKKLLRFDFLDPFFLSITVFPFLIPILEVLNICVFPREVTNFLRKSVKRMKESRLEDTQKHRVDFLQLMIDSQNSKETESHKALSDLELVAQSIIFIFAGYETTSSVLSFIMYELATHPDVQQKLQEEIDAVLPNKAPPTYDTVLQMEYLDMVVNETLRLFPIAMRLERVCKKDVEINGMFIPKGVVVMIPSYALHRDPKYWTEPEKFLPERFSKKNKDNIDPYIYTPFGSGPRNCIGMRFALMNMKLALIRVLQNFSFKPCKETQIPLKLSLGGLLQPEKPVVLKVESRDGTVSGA", "assay": "CYP3A4 inhibition in pooled human liver microsomes (testosterone 6β-hydroxylation)", "experimental": "(§1) In this study, lysionotin was incubated with eight CYP isoforms (i.e., 1A2, 3A4, 2A6, 2E1, 2D6, 2C9, 2C19 and 2C8) in pooled human liver microsomes to investigate the interaction between lysionotin and CYPs, which can provide direct evidence for the effect of lysionotin on the activity of CYPs. In vitro, phenacetin (CYP1A2), testosterone (CYP3A4), coumarin (CYP2A6), chlorzoxazone (CYP2E1), dextromethorphan (CYP2D6), diclofenac (CYP2C9), S-mephenytoin (CYP2C19) and paclitaxel (CYP2C8) were used as probe substrates to determine the effects of lysionotin on eight CYP enzymes. In addition, enzyme kinetic studies were conducted to determine the inhibition model of lysionotin on CYP enzymes.\n(§2) All incubations were performed in triplicate, and the mean values were utilised. The typical incubation systems contained 100 mM potassium phosphate buffer (pH 7.4), NADPH generating system (1 mM NADP^+, 10 mM glucose-6-phosphate, 1 U/mL of glucose-6-phosphate dehydrogenase, and 4 mM MgCl2), the appropriate concentration of HLMs, a corresponding probe substrate and lysionotin (or positive inhibitor for different probe reactions) in a final volume of 200 μL.\n(§3) The concentration of lysionotin was 100 μM, and the positive inhibitor concentrations were as follows: 10 μM furafylline for CYP1A2, 1 μM ketoconazole for CYP3A4, 10 μM tranylcypromine for CYP2A6, 50 μM clomethiazole for CYP2E1, 10 μM quinidine for CYP2D6, 10 μM sulfaphenazole for CYP2C9, 50 μM tranylcypromine for CYP2C19, 5 μM montelukast for CYP2C8. […] The instrument used in this study was Agilent 1260 series instrument with DAD and FLD detector, and the quantitative assay for the corresponding metabolites was performed as previously reported and the detection conditions are summarised in Table 2 (He et al. [2015]; Lang et al. [2017]; Zhang et al. [2017]). […]\n(§4) The enzyme kinetic parameters for the probe reaction were estimated from the best fit line, using least-squares linear regression of the inverse substrate concentration versus the inverse velocity (Lineweaver-Burk plots), and the mean values were used to calculate Vmax and Km. Inhibition data from the experiments that were conducted using multiple compound concentrations were represented by Dixon plots, and inhibition constant (Ki) values were calculated using non-linear regression according to the following equation: v=(VmaxS)/(Km(1+I/Ki+S)for competitive inhibition v=(VmaxS)/[(Km+S((1+I/Ki)] for non-competitive inhibition where I is the concentration of the compound, Ki is the inhibition constant, S is the concentration of the substrate, and Km is the substrate concentration at half the maximum velocity (Vmax) of the reaction. The mechanism of the inhibition was inspected using the Lineweaver-Burk plots and the enzyme inhibition models. […]"}, "[2]": {"molecular_target": "T2, CYP1A2 (Homo sapiens, UniProt P05177)", "T2 construct": "Pooled HLMs were purchased from BD Biosciences Discovery Labware; tissue BD Biosciences Discovery Labware; host or cells: pooled human liver microsomes", "T2 sequence (P05177 1-516)": "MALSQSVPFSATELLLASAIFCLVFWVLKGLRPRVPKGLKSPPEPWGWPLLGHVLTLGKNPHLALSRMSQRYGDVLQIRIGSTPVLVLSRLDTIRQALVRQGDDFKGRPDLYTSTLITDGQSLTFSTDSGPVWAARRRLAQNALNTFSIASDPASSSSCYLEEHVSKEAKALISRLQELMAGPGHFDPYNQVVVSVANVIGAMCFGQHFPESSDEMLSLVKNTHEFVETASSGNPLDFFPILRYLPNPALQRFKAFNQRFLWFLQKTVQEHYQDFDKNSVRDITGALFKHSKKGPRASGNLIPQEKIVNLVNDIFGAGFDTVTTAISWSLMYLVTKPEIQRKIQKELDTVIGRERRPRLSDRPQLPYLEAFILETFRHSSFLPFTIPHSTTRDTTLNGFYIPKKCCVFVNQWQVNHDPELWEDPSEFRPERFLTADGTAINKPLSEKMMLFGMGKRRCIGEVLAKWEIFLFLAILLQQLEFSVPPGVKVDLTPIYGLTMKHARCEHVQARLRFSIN", "assay": "CYP1A2 inhibition in pooled human liver microsomes (phenacetin O-deethylation)", "details": "100 μM lysionotin, pooled HLMs, p > 0.05", "experimental": "(§5) In this study, lysionotin was incubated with eight CYP isoforms (i.e., 1A2, 3A4, 2A6, 2E1, 2D6, 2C9, 2C19 and 2C8) in pooled human liver microsomes to investigate the interaction between lysionotin and CYPs, which can provide direct evidence for the effect of lysionotin on the activity of CYPs. In vitro, phenacetin (CYP1A2), testosterone (CYP3A4), coumarin (CYP2A6), chlorzoxazone (CYP2E1), dextromethorphan (CYP2D6), diclofenac (CYP2C9), S-mephenytoin (CYP2C19) and paclitaxel (CYP2C8) were used as probe substrates to determine the effects of lysionotin on eight CYP enzymes. In addition, enzyme kinetic studies were conducted to determine the inhibition model of lysionotin on CYP enzymes. […]\nas §3"}, "[3]": {"molecular_target": "T3, CYP2D6 (Homo sapiens, UniProt P10635)", "T3 construct": "Pooled HLMs were purchased from BD Biosciences Discovery Labware; tissue BD Biosciences Discovery Labware; host or cells: pooled human liver microsomes", "T3 sequence (P10635 whole entry)": "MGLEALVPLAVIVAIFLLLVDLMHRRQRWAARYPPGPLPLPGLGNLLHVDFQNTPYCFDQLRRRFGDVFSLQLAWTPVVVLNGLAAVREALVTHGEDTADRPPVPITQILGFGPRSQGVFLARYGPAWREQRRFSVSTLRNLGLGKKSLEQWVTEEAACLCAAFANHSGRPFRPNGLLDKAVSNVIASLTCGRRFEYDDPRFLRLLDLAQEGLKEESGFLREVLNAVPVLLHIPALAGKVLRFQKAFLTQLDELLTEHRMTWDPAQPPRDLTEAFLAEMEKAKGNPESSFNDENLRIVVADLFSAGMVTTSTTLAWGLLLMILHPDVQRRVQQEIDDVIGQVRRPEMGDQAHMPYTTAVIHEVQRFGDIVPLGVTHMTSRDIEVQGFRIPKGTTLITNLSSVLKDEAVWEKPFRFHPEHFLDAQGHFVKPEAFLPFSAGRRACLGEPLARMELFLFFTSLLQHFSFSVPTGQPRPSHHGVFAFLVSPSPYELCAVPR", "assay": "CYP2D6 inhibition in pooled human liver microsomes (dextromethorphan O-demethylation)", "details": "100 μM lysionotin, pooled HLMs, p > 0.05", "experimental": "as §5, §3"}, "[4]": {"molecular_target": "T4, CYP2C19 (Homo sapiens, UniProt P33261)", "T4 construct": "Pooled HLMs were purchased from BD Biosciences Discovery Labware; tissue BD Biosciences Discovery Labware; host or cells: pooled human liver microsomes", "T4 sequence (P33261 whole entry)": "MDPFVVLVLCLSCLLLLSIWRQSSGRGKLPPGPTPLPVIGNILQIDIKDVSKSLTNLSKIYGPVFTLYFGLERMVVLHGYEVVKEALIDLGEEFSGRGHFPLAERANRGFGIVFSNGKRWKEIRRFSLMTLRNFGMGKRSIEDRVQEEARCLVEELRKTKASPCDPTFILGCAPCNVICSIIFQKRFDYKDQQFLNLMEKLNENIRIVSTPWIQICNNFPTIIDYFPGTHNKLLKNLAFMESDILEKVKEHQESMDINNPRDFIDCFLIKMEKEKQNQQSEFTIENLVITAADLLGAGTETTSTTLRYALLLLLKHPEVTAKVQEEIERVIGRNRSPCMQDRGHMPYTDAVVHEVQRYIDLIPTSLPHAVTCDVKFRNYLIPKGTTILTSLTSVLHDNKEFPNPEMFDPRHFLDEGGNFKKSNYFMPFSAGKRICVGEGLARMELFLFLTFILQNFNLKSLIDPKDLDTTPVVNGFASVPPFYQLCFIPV", "assay": "Time-dependent inhibition study of CYP2C19 in HLMs", "details": "20 μM lysionotin, 0–30 min", "experimental": "(§6) To determine whether lysionotin could inhibit the activity of CYP3A4, 2C19, and 2C8 in a time-dependent manner, lysionotin (20 μM) was pre-incubated with HLMs (1 mg/mL) in the presence of an NADPH-generating system for 30 min at 37 °C. After incubation, an aliquot (20 μL) was transferred to another incubation tube (final volume 200 μL) containing an NADPH-generating system and probe substrates whose final concentrations were approximate to Km. Then, further incubations were performed to measure the residual activity. After being incubated for 0, 5, 10, 15, and 30 min, the reactions were terminated by adding a 100 μL acetonitrile internal standard mix and then placed on ice; the corresponding metabolites were determined by HPLC."}, "[5]": {"molecular_target": "T5, CYP2C8 (Homo sapiens, UniProt P10632)", "T5 construct": "Pooled HLMs were purchased from BD Biosciences Discovery Labware; tissue BD Biosciences Discovery Labware; host or cells: pooled human liver microsomes", "T5 sequence (P10632 1-490)": "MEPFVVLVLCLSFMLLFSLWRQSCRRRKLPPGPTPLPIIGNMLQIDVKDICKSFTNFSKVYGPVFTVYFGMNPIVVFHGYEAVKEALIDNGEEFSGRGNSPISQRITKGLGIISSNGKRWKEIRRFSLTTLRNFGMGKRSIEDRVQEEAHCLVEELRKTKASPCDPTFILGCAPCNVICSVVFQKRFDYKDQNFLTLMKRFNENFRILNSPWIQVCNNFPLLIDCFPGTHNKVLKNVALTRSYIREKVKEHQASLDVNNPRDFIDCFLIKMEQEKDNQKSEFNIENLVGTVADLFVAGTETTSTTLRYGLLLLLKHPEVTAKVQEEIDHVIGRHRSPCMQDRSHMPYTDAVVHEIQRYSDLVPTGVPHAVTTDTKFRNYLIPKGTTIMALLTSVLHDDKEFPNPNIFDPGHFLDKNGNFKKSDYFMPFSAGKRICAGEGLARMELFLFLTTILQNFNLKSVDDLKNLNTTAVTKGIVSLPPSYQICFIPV", "assay": "Time-dependent inhibition study of CYP2C8 in HLMs", "details": "20 μM lysionotin, 0–30 min", "experimental": "as §6"}, "[6]": {"molecular_target": "T6, CYP2E1 (Homo sapiens, UniProt P05181)", "T6 construct": "Pooled HLMs were purchased from BD Biosciences Discovery Labware; tissue BD Biosciences Discovery Labware; host or cells: pooled human liver microsomes", "T6 sequence (P05181 whole entry)": "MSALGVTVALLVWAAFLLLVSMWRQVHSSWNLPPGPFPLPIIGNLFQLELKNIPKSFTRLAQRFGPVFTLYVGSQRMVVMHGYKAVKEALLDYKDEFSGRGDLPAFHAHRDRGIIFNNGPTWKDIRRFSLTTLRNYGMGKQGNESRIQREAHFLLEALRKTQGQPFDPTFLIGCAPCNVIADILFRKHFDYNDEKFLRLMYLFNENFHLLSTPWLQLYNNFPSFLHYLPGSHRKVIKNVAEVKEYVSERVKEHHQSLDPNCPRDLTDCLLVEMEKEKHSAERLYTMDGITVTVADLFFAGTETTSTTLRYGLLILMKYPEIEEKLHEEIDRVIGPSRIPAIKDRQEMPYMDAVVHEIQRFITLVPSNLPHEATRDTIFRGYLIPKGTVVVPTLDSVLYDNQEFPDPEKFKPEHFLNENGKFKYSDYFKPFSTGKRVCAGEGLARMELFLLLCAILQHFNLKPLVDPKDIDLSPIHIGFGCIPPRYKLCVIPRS", "assay": "CYP2E1 inhibition in pooled human liver microsomes (chlorzoxazone 6-hydroxylation)", "details": "100 μM lysionotin, pooled HLMs, p > 0.05", "experimental": "as §5, §3"}, "[7]": {"molecular_target": "T7, CYP2A6 (Homo sapiens, UniProt P11509)", "T7 construct": "Pooled HLMs were purchased from BD Biosciences Discovery Labware; tissue BD Biosciences Discovery Labware; host or cells: pooled human liver microsomes", "T7 sequence (P11509 1-494)": "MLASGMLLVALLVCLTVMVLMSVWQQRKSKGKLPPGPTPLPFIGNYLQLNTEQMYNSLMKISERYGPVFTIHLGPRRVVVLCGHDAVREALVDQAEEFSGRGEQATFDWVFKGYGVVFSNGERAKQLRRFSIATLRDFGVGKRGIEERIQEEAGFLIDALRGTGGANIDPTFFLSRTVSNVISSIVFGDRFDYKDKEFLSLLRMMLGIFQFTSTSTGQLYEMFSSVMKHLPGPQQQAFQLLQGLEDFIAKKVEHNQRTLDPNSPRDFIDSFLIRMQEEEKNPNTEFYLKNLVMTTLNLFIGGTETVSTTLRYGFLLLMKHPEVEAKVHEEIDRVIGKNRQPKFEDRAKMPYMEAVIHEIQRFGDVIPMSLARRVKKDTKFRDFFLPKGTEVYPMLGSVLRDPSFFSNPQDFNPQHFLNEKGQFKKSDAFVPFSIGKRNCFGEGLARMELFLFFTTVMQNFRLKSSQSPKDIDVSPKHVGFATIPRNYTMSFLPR", "assay": "CYP2A6 inhibition in pooled human liver microsomes (coumarin 7-hydroxylation)", "details": "100 μM lysionotin, pooled HLMs, p > 0.05", "experimental": "as §5, §3"}, "[8]": {"molecular_target": "T5, CYP2C8", "assay": "CYP2C8 inhibition in pooled human liver microsomes (paclitaxel 6α-hydroxylation)", "details": "for inhibition model of CYP2C8: Lineweaver-Burk plots", "experimental": "as §1, §2\nThe concentration of lysionotin was 100 μM, and the positive inhibitor concentrations were as follows: 10 μM furafylline for CYP1A2, 1 μM ketoconazole for CYP3A4, 10 μM tranylcypromine for CYP2A6, 50 μM clomethiazole for CYP2E1, 10 μM quinidine for CYP2D6, 10 μM sulfaphenazole for CYP2C9, 50 μM tranylcypromine for CYP2C19, 5 μM montelukast for CYP2C8. Probe substrates, positive inhibitors (except for dextromethorphan and quinidine, which were dissolved in water), and lysionotin were dissolved in methanol, with a final concentration of 1% (v/v), and 1% neat methanol was added to the incubations without inhibitor. There was a 3 min preincubation period (at 37 °C) before the reaction was initiated by adding an NADPH-generating system. The reaction was terminated by adding a 100 μL acetonitrile (10% trichloroacetic acid for CYP2A6) internal standard mix, and the solution was placed on ice. The mixture was centrifuged at 12,000 rpm for 10 min, and an aliquot (50 μL) of supernatant was transferred for HPLC analysis. The instrument used in this study was Agilent 1260 series instrument with DAD and FLD detector, and the quantitative assay for the corresponding metabolites was performed as previously reported and the detection conditions are summarised in Table 2 (He et al. [2015]; Lang et al. [2017]; Zhang et al. [2017]). […]\nas §4"}}}
{"compound": "COc1ccc(-c2cc(=O)c3c(O)c(OC)c(O)c(OC)c3o2)cc1", "note": "[lysionotin, Lysionotin]", "values": [{"measurement": "activity of CYP3A4 decreased by", "setting": "[1]; 100 μM lysionotin, pooled HLMs", "value": 86.33, "unit": "%"}, {"measurement": "inhibition model of CYP3A4", "setting": "[1]; Lineweaver-Burk plots", "value": "non-competitive"}, {"measurement": "Ki", "setting": "[1]; non-competitive model, testosterone 20–100 μM, pooled HLM", "value": 6.83, "unit": "µM"}, {"measurement": "IC50", "setting": "[1]; pooled HLMs, testosterone 6β-hydroxylation", "value": 13.8, "unit": "µM"}, {"measurement": "effect on the activity of CYP1A2", "setting": "[2]", "value": "not affected"}, {"measurement": "effect on the activity of CYP2D6", "setting": "[3]", "value": "not affected"}, {"measurement": "effect of incubation time on the inhibition of CYP2C19", "setting": "[4]", "value": "relatively stable"}, {"measurement": "effect of incubation time on the inhibition of CYP2C8", "setting": "[5]", "value": "relatively stable"}, {"measurement": "effect on the activity of CYP2E1", "setting": "[6]", "value": "not affected"}, {"measurement": "effect on the activity of CYP2A6", "setting": "[7]", "value": "not affected"}, {"measurement": "activity of CYP2C8 decreased by", "setting": "[8]; 100 μM lysionotin, pooled HLMs", "value": 67.22, "unit": "%"}, {"measurement": "inhibition model of CYP2C8", "setting": "[8]", "value": "competitively"}, {"measurement": "inhibition model of CYP2C8", "setting": "[8]; listed as Lysionotin", "value": "competitive"}]}
